Laboratory results taken from patent publication US5663196A, “Methods for treating neoplastic disorders” (Boston University, priority 1993, dated 1997).
Where two headings read alike, the source gives them in different places.

What was measured:
[1] = system: EL-4 cells (type T lymphoma); assay: Trypan Blue cell viability, EL-4; format: cell-based; details: Mus musculus, EL4, read-out: Trypan Blue Cell Viability (%)
Text: (§1) 1) The Trypan Blue Dye Exclusion Test for monitoring ceil viability as described by Phillips, H. J., in Tissue Culture Methods and Applications; Kruse, P. F., Jr., Patterson, M. K., Eds.; Academic Press, New York, 1973, 406, and by Wu, Y. W., Chik, L. L., Knazek, R. A. Cancer Research 1989, 49, 3754. The results of this assay are expressed as a percentage of viable cells:
(§2) [% viable cells]=[no. of alive cells]/[total no. of cells]×100
(§3) where the total no. cells=dead cells+alive cells. The results are compared directly with an untreated control, which typically show a three-to-four-fold increase for cancer cells, and a two-fold increase for normal cells. Treatments resulting in [% viable cells] of <30% are considered cytotoxic. Therefore, the trypan blue dye exclusion test was used to assess the number of dead and alive cells using various cell lines upon treatment with the crude and purified agent. This test provides a simple clue to the acute or late onset of a cytotoxic response. Readings for this and all other in vitro assays were taken 48 hours after treatment with the unpurified agent, and also […] after treatment for the purified agent. Thus, the trypan blue dye exclusion assay functions to confirm whether or not the cells were viable at the time readings were taken for other bioassays.

[2] = system: BW (BW5147) lymphoma cells; assay: Trypan Blue cell viability, BW (BW5147); format: cell-based; details: Mus musculus, read-out: Trypan Blue Cell Viability (%)
Text: as §1, §2, §3
(§4) With the preferred purified active agent in hand, ^3 H-thymidine incorporation and trypan blue assays were initially performed at different dosages using LK and BW lymphoma ceil lines in order to confirm the activity of the preferred purified active agent, and to bracket the active concentration range for the preferred purified active agent. With a molecular weight of 328, a 1 μg/mL solution corresponds to 3 μM concentration. In addition, the time course of cell viability in the trypan blue assay was also monitored in order to best optimize subsequent assays to ensure that the cells were still viable at the time of measurement, and to ensure a nontoxic response of the cells to the agent. Toxicity of the agent would have been observed as cell death within 2 hours. The trypan blue assays (Table 7), run at 30 μM and 3 μM of purified agent (10 and 1 μg/mL, respectively), indicated excellent cell viability after 24 hours, though with a significant drop in viability after 48 hours at a 30 μM dose of preferred purified active agent. Consequently the results of the in vitro assays employing purified agent were all recorded after 24 hours. In the ^3 H-thymidine incorporation assay (Table 8), dosages ranging from 0.1 to 250 μg/mL were examined.

LK lymphoma cells [3] = assay: Trypan Blue cell viability, LK; format: cell-based; details: Mus musculus, read-out: Trypan Blue Cell Viability (%)
Text: as §1, §2, §3, §4

[4] = system: CT26 cells (colon adenocarcinoma); assay: Trypan Blue cell viability, CT26; format: cell-based; details: Mus musculus, CT26, read-out: Trypan Blue Cell Viability (%)
Text: as §1, §2, §3
The final in vitro assays performed with the preferred purified active agent were intended to examine the scope of the activity in the trypan blue assay against a wider range of tumor cell lines (Tables 10 and 11). These cell lines included a […] lymphoma BW8767, a BW mutant which is more resistant than the BW cell lines used in other assays, as evidenced by the results in Tables 10 and 11.

[5] = system: EL-4 cells (type T lymphoma); assay: 3H-Thymidine Incorporation, EL-4; format: cell-based; details: Mus musculus, read-out: 3H-Thymidine Incorporation (DNA Synthesis) Inhibition (%)
Text: (§5) 2) The ^3 H-Thymidine Incorporation Test as described by Ju, S. T., Dorf, M. E. J. Immunol. 1985, 134, 3722. This test was used for monitoring cellular proliferation by monitoring DNA synthesis. The results are expressed as percent ^3 H-thymidine incorporation relative to an untreated control:
(§6) [% ^3 H-thymidine incorporation]=[cpm agent treated cells]/[cpm
(§7) where cpm=counts per minute. Treatments resulting in [% ^3 H-thymidine incorporation] of <50% are considered active.
The ^3 H-thymidine incorporation assay therefore measures the amount of DNA synthesis when the cells are in the "S" phase of the cell cycle, and is used to assess cell proliferation. Cancer cells, which have a very rapid cell cycle turnover, normally incorporate large amounts of tritium (^3 H) unless inhibited by an exogenous agent. […] While the trypan blue dye exclusion test is an indicator of cell death, the ^3 H-thymidine incorporation test indicates a cytostatic status (not necessarily cytotoxic) of the cell. As previously noted, this latter test was the primary screen used to guide the isolation to the active agent.

[6] = system: BW (BW5147) lymphoma cells; assay: 3H-Thymidine Incorporation, BW (BW5147); format: cell-based, mouse
Text: as §5, §6, §7
The ^3 H-thymidine incorporation assay therefore measures the amount of DNA synthesis when the cells are in the "S" phase of the cell cycle, and is used to assess cell proliferation. […]
With the preferred purified active agent in hand, ^3 H-thymidine incorporation and trypan blue assays were initially performed at different dosages using LK and BW lymphoma ceil lines in order to confirm the activity of the preferred purified active agent, and to bracket the active concentration range for the preferred purified active agent. […] In addition, the time course of cell viability in the trypan blue assay was also monitored in order to best optimize subsequent assays to ensure that the cells were still viable at the time of measurement, and to ensure a nontoxic response of the cells to the agent. […] Consequently the results of the in vitro assays employing purified agent were all recorded after 24 hours. […]

LK lymphoma cells [7] = assay: 35S-Methionine Incorporation (protein synthesis), LK; format: cell-based; details: Mus musculus; for activity at 1 µg/mL: 1 μg/mL; for activity at 10 µg/mL: 10 μg/mL
Text: 3) ^35 S-Methionine Incorporation Test as described by Sorenson, C. M., Barry, M. A., Eastman, A. J. Natl. Canc. Inst. 1990, 82, 749. The results are expressed as percent ^35 S-methionine incorporation relative to an untreated control:
[% ^35 S-methionine incorporation]=[cpm agent treated cells]/[cpm
where cpm=counts per minute. Treatments resulting in [% ^35 S-methionine incorporation] of <50% are considered active.
The ^35 S-methionine incorporation test therefore measures protein synthesis. Activity in this bioassay could arise from inhibition of transcription and/or translation.
In this test, BW and LK lymphoma cells were treated with the preferred purified active agent at 1 μg/mL and 10 μg/mL for comparison with an untreated control. The treated cells were split into two groups, one of which was thoroughly washed to remove the preferred purified active agent prior to incubation with ^35 S-methionine.

Q: How did the viability at 0.1 µg/mL [1] turn out when CC1=C2C(=O)C=C(CO)[C@@H]2[C@H]2OC(=O)[C@@H](C)[C@@H]2[C@@H](O)C1 [11β,13-dihydrolactucin, 3,6-dimethyl-4-hydroxy-9-hydroxymethyl-3,3a,4,5,9a,9b-hexahydroazuleno[4,5-b]furan-2,7-dione] was run?
A: 100%

Q: And the viability at 0.5 µg/mL [1]?
A: 100%

Q: And the viability at 1 µg/mL [1]?
A: 100%

Q: What about the viability at 10 µg/mL [1] of the same compound?
A: 100%

Q: And the viability at 1 µg/mL ([2]; 2 h)?
A: 100%

Q: What about the viability at 10 µg/mL ([2]; 2 h) of the same compound?
A: 100%

Q: And the viability at 1 µg/mL ([2]; 5 h)?
A: 100%

Q: And the viability at 10 µg/mL ([2]; 5 h)?
A: 100%

Q: And the viability at 1 µg/mL ([2]; 12 h)?
A: 100%

Q: What about the viability at 10 µg/mL ([2]; 12 h) of the same compound?
A: 100%

Q: What about the viability at 1 µg/mL ([2]; 24 h) of the same compound?
A: 100%

Q: And the viability at 10 µg/mL ([2]; 24 h)?
A: 85%

Q: What about the viability at 1 µg/mL ([2]; 36 h) of the same compound?
A: 90%

Q: What about the viability at 10 µg/mL ([2]; 36 h) of the same compound?
A: 72%

Q: And the viability at 1 µg/mL ([2]; 48 h)?
A: 90%

Q: What about the viability at 10 µg/mL ([2]; 48 h) of the same compound?
A: 60%

Q: What about the viability at 0.1 µg/mL [2] of the same compound?
A: 100%

Q: And the viability at 0.5 µg/mL [2]?
A: 100%

Q: And the viability at 1 µg/mL [2]?
A: 100%

Q: What about the viability at 10 µg/mL [2] of the same compound?
A: 80%

Q: And the viability at 1 µg/mL (LK lymphoma cells [3]; 2 h)?
A: 100%

Q: And the viability at 10 µg/mL (LK lymphoma cells [3]; 2 h)?
A: 100%

Q: What about the viability at 1 µg/mL (LK lymphoma cells [3]; 5 h) of the same compound?
A: 100%

Q: And the viability at 10 µg/mL (LK lymphoma cells [3]; 5 h)?
A: 100%

Q: And the viability at 1 µg/mL (LK lymphoma cells [3]; 12 h)?
A: 100%

Q: What about the viability at 10 µg/mL (LK lymphoma cells [3]; 12 h) of the same compound?
A: 100%

Q: What about the viability at 1 µg/mL (LK lymphoma cells [3]; 24 h) of the same compound?
A: 100%

Q: And the viability at 10 µg/mL (LK lymphoma cells [3]; 24 h)?
A: 85%

Q: And the viability at 1 µg/mL (LK lymphoma cells [3]; 36 h)?
A: 90%

Q: What about the viability at 10 µg/mL (LK lymphoma cells [3]; 36 h) of the same compound?
A: 72%

Q: And the viability at 1 µg/mL (LK lymphoma cells [3]; 48 h)?
A: 90%

Q: What about the viability at 10 µg/mL (LK lymphoma cells [3]; 48 h) of the same compound?
A: 60%

Q: What about the viability at 0.1 µg/mL [4] of the same compound?
A: 100%

Q: And the viability at 0.5 µg/mL [4]?
A: 100%

Q: What about the viability at 1 µg/mL [4] of the same compound?
A: 100%

Q: And the viability at 10 µg/mL [4]?
A: 100%

Q: What about the inhibition at 0.1 µg/mL ([5]; EL4, 0.1 μg/mL) of the same compound?
A: 100%

Q: What about the inhibition at 0.5 µg/mL ([5]; EL4, 0.5 μg/mL) of the same compound?
A: 100%

Q: What about the inhibition at 1 µg/mL ([5]; EL4, 1.0 μg/mL) of the same compound?
A: 78%

Q: And the inhibition at 10 µg/mL ([5]; EL4, 10 μg/mL)?
A: 38%

Q: What about the “ED50, 3H-thymidine incorporation” value [6] of the same compound?
A: micromolar range

Q: What about the activity at 1 µg/mL (LK lymphoma cells [7]; LK (washed)) of the same compound?
A: 100%

Q: What about the activity at 10 µg/mL (LK lymphoma cells [7]; LK (washed)) of the same compound?
A: 100%

Q: What about the activity at 1 µg/mL (LK lymphoma cells [7]; LK, unwashed) of the same compound?
A: 50%

Q: What about the activity at 10 µg/mL (LK lymphoma cells [7]; LK, unwashed) of the same compound?
A: 10%
